The test system of test [1] is FEN1 mRNA in A2780 cells. As to the kind of experiment: qRT-PCR FEN1 mRNA expression, A2780. It is filed as cell-based, human. Particulars: 24 h exposure to cisplatin. The protocol: (1:200, ab26343). Infrared dye-labelled secondary antibodies (Li-Cor) [IRDye 800CW Donkey Anti-Rabbit IgG and IRDye 680CW Donkey Anti-Mouse IgG] were incubated at a dilution of 1:10000 for 1 h. Membranes were scanned with a LiCor Odyssey machine (700 and 800 nm) to determine protein expression. ß-Tubulin or ß-actin was used as a loading controls for the whole cell lysates. GADPH and YYI were used as loading controls to cytoplasmic and nuclear fractions, respectively. First incubation was with FEN1 antibody and then imaged. This was followed by incubation with loading control and then imaged for analysis. Bar charts show means of optical density (O.D.) ± S.D and all data is representative of at least three independent experiments. qRT-PCR analysis of FEN1 gene expre ssion: RNA was extracted using the RNeasy Mini Kit (74104, Qiagen) and quantified using a Nanodrop 2000c (Thermo Fisher Scientific). cDNA synthesis was performed using the RT2 First Strand Kit (330404, Qiagen). Real time PCR was carried out on an Applied Biosystems […] FAST cycler.
Neutral COMET assay: 1.0x10^5 cells per well were seeded in 6 well tissue culture plates and incubated at 37°C and 5% CO2 overnight. […] Fifty comets were scored per sample using Comet Assay III/IV image analysis software (Perceptive Instruments, Bury St Edmonds, UK). […]
Background: Quantitative PCR measures a nucleic acid by following its amplification.

In test [2] the test system is FEN1. Further details: method as in PMID 21062821. Particulars: read-out: IC50 for FEN1 inhibition; cited from earlier work.
For test [3], the target named is T1, Recombinant human FEN1 protein (Homo sapiens, UniProt P39748).
T1 construct: made in house
The test can be described thus: fluorescence-based HTS assay for FEN1 inhibitors. It is filed as biochemical. The settings on record: dilution series on each screening plate. The protocol:
reactions containing 50 mM Tris pH 8.0, 10 mM MgCl2, 1 mM DTT and 0.01% Tween-20.
Reactions were incubated at 37 °C for 10 min. To inactivate the enzyme, an equal volume of
stop buffer (90% Formamide, 20 mM EDTA) was added and the mixture was heated at 95 °C
for 10 min. Following separation on a 15% polyacrylamide-urea denaturing gel, substrate
and product bands were visualized by a Typhoon Trio+ Variable Model Imager (Amersham
Bioscience/GE Healthcare, Piscataway, NJ), and the signals were quantified using
ImageQuant software (Molecular Dynamics, GE Healthcare).
Development of HTS assay to isolate novel FEN1 inhibitors: To facilitate the search for
novel FEN1 inhibitors, we have developed a fluorogenic donor/quencher reporter pair to
monitor generation of reaction product in real time (28) (Supplementary Figure S4A ).
Recombinant human FEN1 protein was purified from bacteria as described previously (27).
All oligodeoxynucleotides were purchased from Biosearch Technologies, Inc., (Novato, CA,
USA). The double-stranded DNA substrate containing a double flap region used in the […]
BHQ-2 quencher (which absorbs 6-TAMRA fluorescence when in close proximity) is lost,
and FEN1 activity is measured indirectly as an increase in fluorescence signal (Figure 3).
Kinetic fluorescence data were collected on ViewLux high-throughput CCD imager (Perkin […]
by absence of fluorescence. […]

Test [4] deals with A2780cis cells. The test can be described thus: Annexin V apoptosis detection, A2780cis. In kind it is cell-based, human. Particulars: FEN1i plus cisplatin. The protocol: Apoptosis detection: Annexin V detection kit (556547, BD Biosciences) was used to quantify apoptotic cells. Briefly, cells were trypsinized, washed with PBS and the cellular pellet was re-suspended in Anexin Binding Buffer (1×). Following, FITC Anexin V and Propidium Iodide were added to the cells. After incubation, Anexin binding Buffer (1×) was added to each tube. All the samples were analysed on a Beckman-Coulter FC500 flow cytometer. The percentage of apoptotic cells was determined (late apoptotic = FITC-Annexin V positive, PI positive early apoptotic = FITC-Annexin V positive, PI negative; live cells = FITC-Annexin V negative, PI negative) and compared for untreated and treated samples. Graphical representation and statistical analysis was performed in GraphPad Prism 7 (GraphPad, La Jolla, USA).
3D Spheroid assays: A2780_control and A2780 FEN1_ KO as well as A2780cis_control and A2780cis FEN1_ KO cells were seeded at 4500 cells/cm2 density in ultra-low attachment 6-well plates (174932, Thermo Fisher Scientific) and cultured in 3D Tumorsphere Medium (C28070, PromoCell, UK) at 37°C in a 5% CO2 atmosphere. Cells were keep in culture for 7-10 days, toping up with fresh medium every two days until spheroids structures were formed.

T1 sequence (P39748 whole entry): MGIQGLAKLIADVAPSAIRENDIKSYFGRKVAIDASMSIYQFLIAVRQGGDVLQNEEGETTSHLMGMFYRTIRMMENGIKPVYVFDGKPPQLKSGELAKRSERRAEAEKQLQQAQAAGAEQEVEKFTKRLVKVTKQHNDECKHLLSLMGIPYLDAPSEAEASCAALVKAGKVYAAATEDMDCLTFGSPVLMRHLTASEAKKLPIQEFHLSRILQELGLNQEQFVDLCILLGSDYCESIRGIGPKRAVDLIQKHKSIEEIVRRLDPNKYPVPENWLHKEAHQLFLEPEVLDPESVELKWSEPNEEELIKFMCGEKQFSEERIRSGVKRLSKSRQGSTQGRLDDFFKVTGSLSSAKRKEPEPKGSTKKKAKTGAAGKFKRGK

With `N.N.[Cl][Pt][Cl]` [cisplatin], in test [1], the “FEN1 mRNA expression after cisplatin” value was “transient induction of FEN1 mRNA expression on day 1”.

In the case of `Cc1csc2c1c(=O)n(O)c(=O)n2-c1ccccc1` [PTPD, 3-hydroxy-5-methyl-1-phenylthieno [2,3 d]pyrimidine-2,4(1H,3H)-dione], the half-maximal inhibitory concentration (IC50) – broadly, the concentration that gives 50% inhibition – in test [2] is 22 nM. Moreover, the “inhibition pattern of control dilution series in the screen” value in test [3] is “uniform inhibition pattern”. Besides, the apoptosis entry in test [4] is given as “accumulation of apoptotic cells”.

These data come from PMC8070745, “FEN1 Blockade for Platinum Chemo-Sensitization and Synthetic Lethality in Epithelial Ovarian Cancers” (Cancers, 2021).
